This is an account of results in patent US20180133211A1, “METHODS AND MATERIALS FOR PROMOTING BONE FORMATION” (Mayo Foundation for Medical Education and Research, priority 2015, published 2018).

In assay [1] the test system is H3K27me3 marks in MC3T3 cells. As to the kind of experiment: H3K27me3 ChIPSeq in MC3T3 cells. It counts as cell-based, mouse. The conditions noted are these: MC3T3, 5 μM GSK126, 24 hours. As for the experimental part:
MC3T3 (10,000 cells/cm^2) were plated in 10 cm plates in maintenance medium. Two days later, 5 μM GSK126 or vehicle were added to the cells in osteogenic medium. Twenty four hours later, cells were harvested by trypsin, and a chromatin immunoprecipitation assay (ChIP) was performed as described elsewhere (Dudakovic et al., J. Biol. Chem., 288:28783-28791 (2013)) using H3K27Me3 (17-622, Lot 2213948, Millipore) and IgG (PP64B, Lot 2056666A, Millipore) antibodies.
Sequencing libraries were prepared and massively parallel high throughput sequencing was performed on Illumina HiSeq2000 system. The alignment, quality assessment, peak calling, and visualization were performed with the HiChIP analysis pipeline (Yan et al., BMC Bioinformatics, 15:280 (2014)). Briefly, the 50 base-pair reads were aligned to the mm10 reference genome using Burrows-Wheeler Aligner. Duplicates were marked with Picard (http://broadinstitute.github.io/picard), and read-pairs without a unique alignment were filtered out using SAMTools (Li et al., Bioinformatics, 25:2078-2079 (2009)). Duplicates were filtered out using a custom script, and pairs with one or both ends mapped uniquely were retained. Enriched regions were identified using SICER (Zang et al., Bioinformatics, 25:1952-1958 (2009)).

The test system of another assay is female C57BL/6 mice. The assay is described as follows: microCT of femur after 5 weeks of daily GSK126 (in vivo Ezh2 inhibition). The arrangement: species or system mouse. The conditions noted are these: for Ct. TV: cortical bone; for Ct. TV / Ct. Ar / Ct. BV / Ct. Mat.M.Dn / Ct. Th / Ec. Ar / Ps.Ar: femoral midshaft; for Ct. TV / Tb.N / Tb.Sp / Tb.Th / Ct. Ar / Ct. BV / Ct. Mat.M.Dn / Ct. Th / Ec. Ar / Ps.Ar: 5 weeks, mean; for Tb.N / Tb.Sp / Tb.Th: distal femur metaphysis. Here is the method:
Female C57BL/6 mice (Harlan Laboratories) were maintained on a 12-hour light/12-hour dark cycle and were permitted ad libitum access to food and water. For efficacy studies, 6-week old mice received daily intraperitoneal (IP) injections of GSK126 at 15 mg/kg, 50 mg/kg, or vehicle (DMSO) in 20% Captisol adjusted to pH 4-4.5 with IN acetic acid (McCabe et al., Nature, 492:108-112 (2012)) for 5 weeks.
The dosage, delivery schedule, and administration route were similar to those described elsewhere (McCabe et al., Nature, 492:108-112 (2012)). Animals were weighed daily. To label mineralizing bone surfaces, mice received subcutaneous injections of calcein (10 mg/kg) 5 days and 24 hours before euthanasia.
The quantitative analysis of the femoral metaphysis was performed using a vivaCT 40 scanner (SCANCO Medical AG) with the following parameters: E=55 kVp, 1=145 μA, integration time=300 ms. A 10.5 μm voxel size using a threshold of 220 was applied to all scans at high resolution. Using two-dimensional data from scanned slices, 3D analysis was generated and used to calculate morphometric parameters defining trabecular bone mass and micro-architecture, including Bone Volume/Tissue volume (BV/TV), trabecular number (Tb.N.), trabecular thickness (Tb.Th.), trabecular spacing (Tb.Sp.), and the structure model index (SMI), an indicator of plate-like versus rod-like trabecular architecture.

In the next assay the test system is mouse calvarial explants. As to the kind of experiment: RT-qPCR mRNA expression in calvarial explants. Type of assay: cell-based. The conditions noted are these: calvarial explants from neo-natal and adult mice, 3 μM, 12 days ex vivo. As for the experimental part:
Calvariae from 2 to 3-day-old and from 7-week old C57BL/6 mice were dissected aseptically. The calvarial bone explants were cultured in 48-well plates in α-MEM (Biochrom) containing 10% FCS (Biochrom), 50 μg/mL ascorbic acid (Sigma-Aldrich), 5 mM β-glycerophosphate (Sigma-Aldrich), and 10 μg/mL gentamicin (Sigma-Aldrich). The day after dissection, medium was changed, and a part of the explants was treated with 3 μM L- or DL-SFN for 12 days. Thereafter, one part of the calvariae were fixed for 1 hour in 4% para-formaldehyde (PFA), and mineralization was measured by Alizarin Red S stain (Sigma-Aldrich). For this purpose, Alizarin Red S dye was extracted using 10% cetylpyridinium chloride (CPC) in 10 mM sodiumphosphate (pH=7.0) for 45 minutes at room temperature. Alizarin Red S absorbance was measured at 562 nm in a multi-plate reader (Tecan, Maennedorf, Switzerland) and normalized to total protein amount measured by bicinchoninic acid assay (Thermo Fisher Scientific, Waltham, Mass., USA). […]
Total RNA was extracted using the SV Total RNA Isolation kit (Promega) following the supplier's instructions. cDNA was synthesized from about 0.5 μg RNA using the First Strand cDNA Synthesis kit (Roche) as described by the supplier. […] All RT-qPCR assays were performed in triplicate, and expression was evaluated using the comparative quantification method (Pfaffl, Nucleic Acids Res., 29:e45 (2001)).
Background: In qPCR the cycle at which signal appears reflects the starting amount.

Consider `CC[C@H](C)n1cc(C)c2c(C(=O)NCc3c(C)cc(C)[nH]c3=O)cc(-c3ccc(N4CCNCC4)nc3)cc21` [GSK126, N-[(1,2-dihydro-4,6-dimethyl-2-oxo-3-pyridinyl)methyl]-3-methyl-1-[(1S)-1-methylpropyl]-6-[6-(1-piperazinyl)-3-pyridinyl]-1H-indole-4-carboxamide], for which, in assay [1], the “deposition of H3K27me3 marks near transcriptional start sites (TSSs) across the genome” value is “decreased”. Further, in the assay on female C57BL/6 mice (adult mice, 50 mg/kg daily for 5 weeks, in words), the cortical bone parameters entry is recorded as “increased”. For the same compound, in the assay with female C57BL/6 mice (15 mg/kg), the “Ct. TV” value worked out at 1.184 mm^3, the Tb.N was determined as 3.850 mm^−1, the Tb.Sp is 0.267 mm and the Tb.Th was 0.040 mm. In the assay on female C57BL/6 mice (15 mg/kg), the “Ct. Ar” value was determined as 0.719 mm^2, the “Ct. BV” value turned out to be 0.509 mm^3, the “Ct. Mat.M.Dn” value is 1235 mgHA/cm^3 and the “Ct. Th” value is given as 0.171 mm. In addition, in the assay on female C57BL/6 mice (15 mg/kg), the “Ec. Ar” value is 0.955 mm^2 and the Ps.Ar stood at 1.675 mm^2. In the assay on female C57BL/6 mice (50 mg/kg), the “Ct. TV” value is 1.243 mm^3, the Tb.N came to 4.053 mm^−1, the Tb.Sp stood at 0.252 mm and the Tb.Th worked out at 0.043 mm. For the same compound, in the assay with female C57BL/6 mice (50 mg/kg), the “Ct. Ar” value was 0.753 mm^2, the “Ct. BV” value was found to be 0.532 mm^3, the “Ct. Mat.M.Dn” value was 1238 mgHA/cm^3 and the “Ct. Th” value came out at 0.175 mm. Further, in the assay on female C57BL/6 mice (50 mg/kg), the “Ec. Ar” value is 1.006 mm^2 and the Ps.Ar was found to be 1.758 mm^2.

Take `C[S+]([O-])CCCCN=C=S` (racemic) [DL-SFN]: the Tnfsf11 expression entry in the assay with mouse calvarial explants is given as “decreased”.
